# According to US12006276B2, “Dibromobenzyl derivative, stereoisomer or salt thereof, and preparation method and application of dibromobenzyl derivative” (CHENGDU SHIBEIKANG BIOMEDICAL TECHNOLOGY CO., LTD., priority 2019, dated 2024):
# Counter-ions that a name gives are not always drawn.
# Assays:
# [1] = Pharmacokinetics test in rats; format: in vivo, rat; conditions: intravenous; for MRT / clearance / half-life / AUC(0-inf): both sexes, rat, plasma, 10 mg/kg as free alkali; for MRT / clearance / half-life: n=6; for AUC(0-inf): n=6, read-out: AUC AUC0-inf; for Half-life, clearance, MRT and AUC compared with the ambroxol hydrochloride group (in words): P<0.05
# Method: Pharmacokinetics Test in Rats
# Methods: Twenty-four female and male rats are randomLy allocated into an Example 1 compound group (10 mg/kg, as free alkali), an Example 3 compound group (10 mg/kg, as free alkali), an Example 12 compound group and an ambroxol hydrochloride group (10 mg/kg, as free alkali) (n=6); These rats are given corresponding products (dissolved in normal saline to adjust pH) intravenously. About 0.2 mL of blood samples is respectively collected from jugular veins before and 15.0 min, 30.0 min, 1.0 h, 2.0 h, 3.0 h, 4.0 h, 6.0 h, 8.0 h, 12.0 h and 24.0 h after the administration, and then centrifuged at a high speed (7800×g) for 15 min in a tube containing EDTA-K2. The separated plasma is stored at −15° C.˜−35° C.
# [2] = test system: SD rats; assay: Capillary expectoration test in rats; format: in vivo, rat; conditions: for 90-min length of phlegm expelled: SD rats, 15 mg/kg via tail vein, capillary tube in trachea, x ± s, n=10; for Expectorant effect compared with the ambroxol hydrochloride group (in words): rats, 15 mg/kg, P<0.05 vs ambroxol hydrochloride
# Method: Capillary Expectoration Test in Rats
# The female and male SD rats with body weights ranging from 180 g to 220 g are randomLy allocated into 9 groups (n=10 rats). Before measuring the length of phlegm expelled, the rats are prohibited to eat but allowed to drink for 12 hrs, and then administrated via tail veins with corresponding products (dissolved in normal saline to adjust pH) or normal saline. After 30 mins, urethane saline solution (1 g/kg) is injected intraperitoneally for anesthesia, and the rats are fixed in a supine position for neck incision and trachea separation. […] The angle between the capillary tube and the trachea is adjusted to collect the phlegm, and the expectoration effect is evaluated based on a total length (mm) of the phlegm in the capillary tube.
# [3] = test system: mice; assay: Phenol red expectoration test in mice; format: in vivo, mouse; conditions: for Excretory amount of phenol red (OD value): 30 mg/kg as free alkali, twice via tail vein, trachea phenol red at 546 nm, x ± s, n=12; for Excretory amounts of phenol red compared with the control group (in words) / Excretory amounts of phenol red compared with the ambroxol hydrochloride group (in words): 30 mg/kg; for Excretory amounts of phenol red compared with the control group (in words): p<0.05 vs control; for Excretory amounts of phenol red compared with the ambroxol hydrochloride group (in words): P<0.05 vs ambroxol hydrochloride
# Method: Phenol Red Expectoration Test in Mice
# Methods: Seventy-two female and male mice are randomLy allocated into a control group (normal saline), an Example 1 group (30 mg/kg, as free alkali), an Example 3 group (30 mg/kg, as free alkali), an Example 5 group (30 mg/kg, as free alkali), an Example 12 group (30 mg/kg, as free alkali) and an ambroxol hydrochloride group (30 mg/kg, as free alkali) (n=12 mice); These mice are administrated twice in successive via tail veins with corresponding products (dissolved in normal saline to adjust pH) or normal saline, and then receive 5% phenol red saline solution (0.5 g/kg) by hypodermic administration 15 mins after the last dose. […] The effects on excretory amounts of phenol red from trachea of mice among groups are analyzed and compared, and results are shown in Table 2: […]
SMILES,MRT [1],clearance [1],half-life [1],AUC(0-inf) [1],90-min length of phlegm expelled [2],Excretory amount of phenol red (OD value) [3],Excretory amounts of phenol red compared with the control group (in words) [3],"Half-life, clearance, MRT and AUC compared with the ambroxol hydrochloride group (in words) [1]",Expectorant effect compared with the ambroxol hydrochloride group (in words) [2],Excretory amounts of phenol red compared with the ambroxol hydrochloride group (in words) [3]
"Nc1c(Br)cc(Br)cc1CN[C@H]1CC[C@H](O)CC1 [Ambroxol hydrochloride, reference compound]",1.18 ± 0.2 h,101 mL/min/kg,1.98 ± 0.34 h,1650 ± 71.9 ng·h/mL,29.9 ± 4.96 mm,0.131 ± 0.015 OD value,significantly increase,–,–,–
"Nc1c(Br)cc(Br)cc1CNC12CC3CC(CC(O)(C3)C1)C2 [Example 1, 3-((2-amino-3,5-dibromobenzyl)amino)adamantane-1-ol]",2.58 ± 0.41 h,34.9 mL/min/kg,3.58 ± 0.45 h,4470 ± 250 ng·h/mL,39.9 ± 5.35 mm,0.220 ± 0.063 OD value,significantly increase,significantly superior to the ambroxol hydrochloride group,remarkably superior to the ambroxol hydrochloride,remarkably superior to the ambroxol hydrochloride
"Nc1c(Br)cc(Br)cc1CN[C@@H]1CCC[C@H]1O [Example 3, (1R,2R)-2-((2-amino-3,5-dibromobenzyl)amino)-cyclopentanol]",2.31 ± 0.36 h,47.7 mL/min/kg,3.12 ± 0.34 h,3650 ± 180 ng·h/mL,37.8 ± 6.45 mm,0.218 ± 0.052 OD value,significantly increase,significantly superior to the ambroxol hydrochloride group,remarkably superior to the ambroxol hydrochloride,remarkably superior to the ambroxol hydrochloride
"CC12CC3CC(C1)CC(NCc1cc(Br)cc(Br)c1N)(C3)C2 [Example 5, (2-amino-3,5-dibromobenzyl)-3-methyl-adamantane-1-amine]",–,–,–,–,36.9 ± 5.45 mm,0.201 ± 0.062 OD value,–,–,–,–
"Nc1c(Br)cc(Br)cc1CNC12CC3CC(C1)CC(C(F)(F)F)(C3)C2 [Example 6, (2-amino-3,5-dibromobenzyl)-3-trifluoromethyl-adamantane-1-amine]",–,–,–,–,35.2 ± 4.79 mm,–,–,–,–,–
"Nc1c(Br)cc(Br)cc1CN[C@@H]1CCC[C@@H]1C(F)(F)F [Example 7, (1R,2S)-2-trifluoromethyl-((2-amino-3,5-dibromobenzyl)amino)-cyclopentane]",–,–,–,–,31.8 ± 5.73 mm,–,–,–,–,–
"Nc1c(Br)cc(Br)cc1CNC12CC3CC(CC(C3)C1F)C2 (stereo not drawn) [Example 8, (2-amino-3,5-dibromobenzyl)-2-fluoro-adamantane-1-amine]",–,–,–,–,35.8 ± 5.98 mm,–,–,–,–,–
"Nc1c(Br)cc(Br)cc1CNC1C2CC3CC1CC(O)(C3)C2 (stereo not drawn) [Example 12, 4-((2-amino-3,5-dibromobenzyl)amino)adamantane-1-ol]",2.65 ± 0.42 h,35.8 mL/min/kg,3.43 ± 0.35 h,4490 ± 240 ng·h/mL,39.8 ± 5.31 mm,0.221 ± 0.059 OD value,significantly increase,significantly superior to the ambroxol hydrochloride group,remarkably superior to the ambroxol hydrochloride,remarkably superior to the ambroxol hydrochloride
